Laboratory results as given in patent US8163795B2, “Chroman derivatives, medicaments and use in therapy” (Marshall Edwards, Inc., priority 2004, dated 2012).
Read-outs that look alike come from different tables or passages of the source.

Columns and labels:
[1] = test system: SKOV-3 ovarian cancer cell line; assay: Proliferation assay (MTT); format: cell-based; conditions: Homo sapiens, SK-OV-3; Table 2.1; Ovarian SKOV-3; read-out: IC50
[2] = test system: 4405 melanoma cell line; assay: HMC combination with paclitaxel (synergy); format: cell-based; conditions: for IC50: Table 10, single agent
Description: (§1) IC50 values were determined for each cell line. Cells were seeded in 96-well plates at an appropriate cell density as determined from growth kinetics analysis and cultured for 5 days in the absence and presence of the test compounds. Cell proliferation was assessed after the addition of 20 μl of 3-4,5 dimethylthiazol-2,5-diphenyl tetrazolium bromide (MTT, 2.5 mg/ml in PBS, Sigma) for 3-4 hrs at 37° C. according to manufacturer's instructions. IC50 values were calculated from semi-log plots of % of control proliferation on the y-axis against log dose on the x-axis.
3-D model analysis of the cytotoxic interaction between drug A and drug B enables the representation of predicted inhibitory effect of two drugs in combination in 3 dimensions to reveal actual regions of synergy or antagonism. The 3D synergy plots are based on a theory of “Theretical Additivity” (TA) as outlined by Kanzawa et al (Int. J. Cancer 71, 311-319 (1997)). Theoretical Additivity was calculated from the cytotoxicities of drug A and drug B as monotherapies using the following formula which assumes the drugs are mutually exclusive inhibitors: […]
The TA is calculated for each combination of drug concentrations and subtracted from the observed experimental effect for each combination to give a measurement of synergisitic action.
HMC synergy with paclitaxel was assessed either in combination over 5 days exposure or in sequence (HMC→paclitaxel) against the 4405 melanoma cell line. It was difficult to assess for synergisitic toxicity using a change in IC50 as a measure of synergy due to HMC toxicity as monotherapy (Table 10). […] Evidence of synergy using the HMC-paclitaxel combination was further assessed using the HMC→paclitaxel sequence (24 hr exposure to each compound in sequence) against the melanoma cell line 4405. Using change in IC50 to assess for synergy it was noted that HMC at concentrations of 2 μM markedly chemosensitised the 4405 cells to paclitaxel by >1000 fold (Table 10). HMC-induced chemosensitisation of […] cells to paclitaxel was confirmed using 3D analysis of the data.

[3] = test system: A2058 melanoma cell line; assay: Proliferation assay (MTT); format: cell-based; conditions: Homo sapiens
[4] = test system: MEL-RM melanoma cells (TRAIL sensitive); assay: Apoptosis incidence in melanoma cells; format: cell-based
[5] = test system: HPAC pancreatic cancer tumours; assay: Pilot in vivo efficacy study, HPAC tumour bearing mice; parameters: species or system Athymic nu/nu BALB/c mice
From the text: Subconfluent (80%) flasks of HPAC cells were trypsinised, washed in Hanks balanced salt solution (Sigma), resuspended in dubellco's minimal essential medium (Sigma) and an equal volume of Matrigel™ (Becton Dickson) at a density of 3.7×10^7 cells per ml. Athymic nu/nu BALB/c mice were s.c. inoculated with 3.7×10^6 HPAC cells bi-laterally midway along the dorsal surface. For the HMC (n=3 per dosage regimen) and control groups (n=2), treatment commenced five days post inoculation to allow tumour formation. HMC was formulated 20% HPBCD and delivered i.p. daily for 15 days. The control group received equivalent (weight:weight) i.p. doses of 20% HPBCD. Tumour measurements commenced on day 5 post inoculation (10×10 mm^2) and were measured in 2 dimensions, length (a) and width (b), using calipers. Tumor weight (W) was calculated by the formula W=ab2/2, where a, is the longer of the 2 measurements (Odwyer et al., 1994). Tumour proliferation curves were analyzed with respect to maximal tumour inhibition (treated/control, TIC). On sacrifice, liver, kidney, femur, stomach and colon tissue were fixed in buffered formalin, embedded in paraffin, sections cut and stained with H&E. Stained sections were then submitted to Rothwell consulting for histopathology analysis. Serum biochemistry was conducted on bloods taken from control, vehicle control and HMC treatment groups. Serum analysis was conducted by Veterinary Clinical pathology (U. Syd).
Histopathological examination of haematoxylin and eosin-stained sections cut from formalin-fixed tissues from two series of experimental mice was made. The liver, kidney, stomach and colon were examined for evidence of toxic damage, the spleen and bone marrow for evidence of myelosuppression and the tumour for degree of necrosis. A score of 0-5 was allocated to each tumour specimen for the degree of necrosis present, a 0 score representing, no necrosis and a score of 5, total necrosis. The sections were scored ‘blind’ on two separate occasions and the final score given in the results is the mean of these two scores.

[6] = HMC and HHC pharmacokinetics, oral, human patients; format: in vivo; conditions: plasma
Description: Human patients were orally dosed with 200 mg of either HMC or HHC. For each challenged patient, blood was taken over a 6 hour period and the results averaged to characterise the plasma pharmacokinetics.

[7] = test system: normal fibroblasts (MRC-5); assay: Apoptosis in normal fibroblasts; format: cell-based; conditions: same concentration (8 μM) and exposure times (24 and 48 hr) as melanoma cells
Description: Studies were conducted on normal fibroblasts (MRC-5) and TRAIL-sensitive melanoma cells (ME4405 and MEL-RM) using 8 μM of either DHE, or HMC over 24 and 48 hr of exposure (FIG. 9).

[8] = test system: rabbit kidney cells (RK); assay: Proliferation assay (MTT), normal cell toxicity; format: cell-based; conditions: Oryctolagus cuniculus; rabbit kidney cells; read-out: IC50
Description: The normal cell line NFF (neonatal foreskin fibroblasts) was a sift from Dr. Peter Parsons (Queensland Institute of Medical Research). RK (rabbit kidney) cells were obtained from Miller Whalley (Macquarie University). Both cell lines were cultured in RPMI supplemented with 10% FCS(CSL, Australia), penicillin (100 U/ml), streptomycin ([…]), L-glutamine (2 mM) and sodium bicarbonate (1.2 g/L), and cultured at 37° C. in a humidified atmosphere of 5% CO2.
as §1

[9] = human, po, humans dosed orally with 200 mg

COc1ccc(C2c3ccc(O)cc3OCC2c2ccc(O)cc2)cc1 (centres unmarked) [Compound 1, 3-(4-hydroxyphenyl)-4-(4-methoxyphenyl)chroman-7-ol]
IC50 [1]: 2260 nM | reduction in IC50 in the combination experiment vs paclitaxel monotherapy ([2]; 5-day combination): 30 fold | IC50 ([2]; 120 h, 5 days exposure, read-out: IC50, Combined (monotherapy)): 1260 nM | chemosensitisation of 4405 cells to paclitaxel (change in IC50) ([2]; HMC 2 μM, HMC→paclitaxel sequence): > 1000 fold | Change Factor (HMC first) ([2]; Paclitaxel block, HMC 1 uM 24 hr then paclitaxel 24 hr): 11.00 | Change Factor (HMC first) ([2]; Paclitaxel block, HMC 2 uM 24 hr then paclitaxel 24 hr): 106633.75 | Change Factor (Combined) ([2]; Paclitaxel block, with HMC 1 uM, 5-day combination): 30.36 | Change Factor (Combined) ([2]; Paclitaxel block, with HMC 2 uM, 5-day combination): ?HMC effect | IC50 ([2]; 24 hr exposure, read-out: IC50, 24 hr (monotherapy)): 55500 nM | Change Factor (HMC first) ([2]; upper block of Table 10, HMC 2 uM first, sequence): −1.035 | Change Factor (Combined) ([2]; upper block of Table 10, HMC 2 uM, 5-day combination): 5964.400 | IC50 ([3]; A2058, Table 2.1, Melanoma A2058): 1200 ± 650 nM | IC50 ([3]; A2058, Table 15, melanoma A2058): 1420 ± 480 nM | Percent Apoptosis ([4]; 24 hr exposure, 1 uM): 0% | Percent Apoptosis ([4]; 24 hr exposure, 2 uM): 8% | Percent Apoptosis ([4]; 24 hr exposure, 4 uM): 25% | Percent Apoptosis ([4]; 24 hr exposure, 8 uM): 39% | Percent Apoptosis ([4]; 24 hr exposure, 20 uM): 38% | Percent Apoptosis ([4]; 48 hr exposure, 1 uM): 1.5% | Percent Apoptosis ([4]; 48 hr exposure, 2 uM): 8% | Percent Apoptosis ([4]; 48 hr exposure, 4 uM): 22% | Percent Apoptosis ([4]; 48 hr exposure, 8 uM): 38% | Percent Apoptosis ([4]; 48 hr exposure, 20 uM): 30% | final tumour burden (mean terminal tumour mass), % T/C ([5]; 100 mg/kg i.p. daily, 15 days): 62% | proliferation of HPAC tumours over the treatment period vs vehicle control ([5]; 100 mg/kg i.p. daily, 15 days, in 20% HPBCD): significantly retarded the proliferation of HPAC tumours | Necrosis Score 0-5 (tumour) ([5]; individual treated mice, 0 no necrosis, 5 total necrosis, mean of two blind scores): 2 | Cmax [6, 9]: 513 ng/mL | Tmax [6, 9]: 2.17 h | t1/2 ([6]; humans dosed orally with 200 mg): 3.99 h | half-life ([6]; human patients, 200 mg oral, initial results): 3.99 h | induction of apoptosis in normal fibroblasts [7]: do not induce apoptosis | IC50 [8]: 61000 nM
